From patent publication US7612097B2, “Method for producing bactericidal pyridine compound and bactericidal pyridine compound” (Tama Kagaku Kogyo Co., Ltd., priority 2003, dated 2009)
In brackets after ≈: the same amount, converted by molar mass.

Key:
Type in all cases: cell-based
Bacillus cereus IFO 3001 [1] = test: Bacteriostatic activity MIC, broth dilution; settings: nutrient broth, 37° C., 24 hours
Experimental: (§1) Using benzalkonium chloride as a control compound, minimum inhibitory concentrations (MICs) were determined.
(§2) Each minimum inhibitory concentration (MIC) was determined as will be described hereinafter. Aliquots of a suspension of stationary-phase cells, the cell concentration of which had been adjusted to 10^6 cells/mL with nutrient broth in accordance with the general broth dilution method, were mixed with serially-diluted solutions of a compound, respectively. Subsequent to stationary culture at 37° C. for 24 hours, the MIC value was determined depending upon whether or not any growth had taken place.
(§3) As test microorganisms, ten (10) Gram-negative bacteria and six (6) Gram-positive bacteria were used.

[2] = test system: Bacillus subtilis ATCC 6633; test: Bacteriostatic activity MIC, broth dilution; settings: nutrient broth, 37° C., 24 hours
Experimental: as §1, §2, §3

[3] = test system: Bacillus subtilis IFO 3134; test: Bacteriostatic activity MIC, broth dilution; settings: nutrient broth, 37° C., 24 hours
Experimental: as §1, §2, §3

[4] = test system: Escherichia coli K12 OUT 8401; test: Bacteriostatic activity MIC, broth dilution; settings: nutrient broth, 37° C., 24 hours
Experimental: as §1, §2, §3

[5] = test system: Escherichia coli K12 W3110; test: Bacteriostatic activity MIC, broth dilution; settings: nutrient broth, 37° C., 24 hours
Experimental: as §1, §2, §3

[6] = test system: Klebsiella pneumoniae ATCC 13883; test: Bacteriostatic activity MIC, broth dilution; settings: nutrient broth, 37° C., 24 hours
Experimental: as §1, §2, §3

[7] = test system: Klebsiella pneumoniae ATCC 4352; test: Bacteriostatic activity MIC, broth dilution; settings: nutrient broth, 37° C., 24 hours
Experimental: as §1, §2, §3

[8] = test system: Micrococcus luteus IFO 12708; test: Bacteriostatic activity MIC, broth dilution; settings: nutrient broth, 37° C., 24 hours
Experimental: as §1, §2, §3

[9] = test system: Proteus mirabilis IFO 3849; test: Bacteriostatic activity MIC, broth dilution; settings: nutrient broth, 37° C., 24 hours
Experimental: as §1, §2, §3

Proteus rettgeri NIH 96 [10] = test: Bacteriostatic activity MIC, broth dilution; settings: nutrient broth, 37° C., 24 hours
Experimental: as §1, §2, §3

[11] = test system: Proteus vulgaris ATCC 13315; test: Bacteriostatic activity MIC, broth dilution; settings: nutrient broth, 37° C., 24 hours
Experimental: as §1, §2, §3

[12] = test system: Pseudomonas aeruginosa ATCC 10145; test: Bacteriostatic activity MIC, broth dilution; settings: nutrient broth, 37° C., 24 hours
Experimental: as §1, §2, §3

[13] = test system: Pseudomonas aeruginosa ATCC 27583; test: Bacteriostatic activity MIC, broth dilution; settings: nutrient broth, 37° C., 24 hours
Experimental: as §1, §2, §3

[14] = test system: Pseudomonas aeruginosa ATCC 3080; test: Bacteriostatic activity MIC, broth dilution; settings: nutrient broth, 37° C., 24 hours
Experimental: as §1, §2, §3

[15] = test system: Staphylococcus aureus IFO 12732; test: Bacteriostatic activity MIC, broth dilution; settings: nutrient broth, 37° C., 24 hours
Experimental: as §1, §2, §3

[16] = test system: Staphylococcus aureus JCI (MRSA); test: Bacteriostatic activity MIC, broth dilution; settings: nutrient broth, 37° C., 24 hours
Experimental: as §1, §2, §3

Bacillus cereus IFO 3001 [17] = test: Bactericidal activity MBC, dilution method; settings: 30° C., 30 min
Experimental: (§4) Each minimum inhibitory concentration (MIC) was determined as will be described hereinafter. Aliquots of a suspension of stationary-phase cells, the cell concentration of which had been adjusted to 10^6 cells/mL with nutrient broth in accordance with the general broth dilution method, were mixed with serially-diluted solutions of a compound, respectively. […]
(§5) As a control compound, benzalkonium bromide was used. Using five (5) Gram-negative bacteria and four (4) Gram-positive bacteria as test microorganisms, minimum bactericidal concentrations (MBCs) were determined in a similar manner as described above.

[18] = test system: Bacillus subtilis ATCC 6633; test: Bactericidal activity MBC, dilution method; settings: 30° C., 30 min
Experimental: as §4, §5

[19] = test system: Bacillus subtilis IFO 3134; test: Bactericidal activity MBC, dilution method; settings: 30° C., 30 min
Experimental: as §4, §5

[20] = test system: Escherichia coli K12 W3110; test: Bactericidal activity MBC, dilution method; settings: 30° C., 30 min
Experimental: as §4, §5

[21] = test system: Klebsiella pneumoniae ATCC 13883; test: Bactericidal activity MBC, dilution method; settings: 30° C., 30 min
Experimental: as §4, §5

Proteus rettgeri NIH 96 [22] = test: Bactericidal activity MBC, dilution method; settings: 30° C., 30 min
Experimental: as §4, §5

[23] = test system: Pseudomonas aeruginosa ATCC 27583; test: Bactericidal activity MBC, dilution method; settings: 30° C., 30 min
Experimental: as §4, §5

[24] = test system: Staphylococcus aureus IFO 12732; test: Bactericidal activity MBC, dilution method; settings: 30° C., 30 min
Experimental: as §4, §5

[25] = test system: Escherichia coli K12 OUT 8401; test: Bactericidal activity MBC, dilution method; settings: 30° C., 30 min
Experimental: as §2, §5

[26] = test system: Aspergillus niger IFO 6341; test: Antimold MIC against eumycetes, broth dilution; settings: Sabouraud medium, 30° C., 7 days
Experimental: (§6) As a control compound, TBZ (2-(4′-thiozolyl)benzimidazole) was used. Each minimum inhibitory concentration (MIC) was determined as will be described hereinafter. Following the general broth dilution method, each test microorganisms which had been precultured with Sabouraud medium was diluted with humectant-added, sterilized water to prepare a spore suspension. Aliquots (1 mL) of diluted solutions of a compound were mixed with 1-mL aliquots of the spore suspension, respectively. After incubating the mixtures at 30° C. for 1 week in an incubator, turbidity was relied upon to determine whether or not any growth had taken place. The turbidity-free lowest concentration was recorded as MIC.

[27] = test system: Aspergillus niger TSY 0013; test: Antimold MIC against eumycetes, broth dilution; settings: Sabouraud medium, 30° C., 7 days
Experimental: as §6

[28] = test system: Aspergillus terreus IFO 6346; test: Antimold MIC against eumycetes, broth dilution; settings: Sabouraud medium, 30° C., 7 days
Experimental: as §6

[29] = test system: Aureobasidium pullulans IFO 6353; test: Antimold MIC against eumycetes, broth dilution; settings: Sabouraud medium, 30° C., 7 days
Experimental: as §6

[30] = test system: Chaetomium globosum IFO 6347; test: Antimold MIC against eumycetes, broth dilution; settings: Sabouraud medium, 30° C., 7 days
Experimental: as §6

[31] = test system: Cladosporium cladosporioides IFO 6348; test: Antimold MIC against eumycetes, broth dilution; settings: Sabouraud medium, 30° C., 7 days
Experimental: as §6

[32] = test system: Gliocladium virides IFO 6355; test: Antimold MIC against eumycetes, broth dilution; settings: Sabouraud medium, 30° C., 7 days
Experimental: as §6

[33] = test system: Penicillium funiculosum IFO 6345; test: Antimold MIC against eumycetes, broth dilution; settings: Sabouraud medium, 30° C., 7 days
Experimental: as §6

Rhizopus nigricans SN 32 = test: Antimold MIC against eumycetes, broth dilution; settings: Sabouraud medium, 30° C., 7 days
Experimental: as §6

[34] = test system: Trichoderma virides IFO 30498; test: Antimold MIC against eumycetes, broth dilution; settings: Sabouraud medium, 30° C., 7 days
Experimental: as §6

## CCCCCCCC[n+]1cccc(COCCCCOCc2ccc[n+](CCCCCCCC)c2)c1.[Br-].[Br-] [Compound 7-A]
Bacillus cereus IFO 3001 [1]
  MIC: 0.45 µM
[2]
  MIC: 0.45 µM
[3]
  MIC: 0.5 µM
[4]
  MIC: 0.9 µM
[5]
  MIC: 0.9 µM
[6]
  MIC: 1.8 µM
[7]
  MIC: 1.8 µM
[8]
  MIC: 0.2 µM
[9]
  MIC: 6.25 µM
Proteus rettgeri NIH 96 [10]
  MIC: 3.6 µM
[11]
  MIC: 3.6 µM
[12]
  MIC: 6.25 µM
[13]
  MIC: 6.25 µM
[14]
  MIC: 6.25 µM
[15]
  MIC: 0.45 µM
[16]
  MIC: 0.4 µM
Bacillus cereus IFO 3001 [17]
  MBC: 0.9 µM
[18]
  MBC: 0.9 µM
[19]
  MBC: 0.9 µM
[20]
  MBC: 1.8 µM
[21]
  MBC: 3.6 µM
Proteus rettgeri NIH 96 [22]
  MBC: 3.6 µM
[23]
  MBC: 3.6 µM
[24]
  MBC: 0.9 µM
[25]
  MBC: 1.8 µM
[26]
  MIC: 3.6 µM
[27]
  MIC: 3.6 µM
[28]
  MIC: 3.6 µM
[29]
  MIC: 3.6 µM
[30]
  MIC: 3.6 µM
[31]
  MIC: 3.6 µM
[32]
  MIC: 3.6 µM
[33]
  MIC: 3.6 µM
Rhizopus nigricans SN 32
  MIC: 6.25 µM
[34]
  MIC: 6.25 µM

## CCCCCCCC[n+]1ccc(COCCCCOCc2cc[n+](CCCCCCCC)cc2)cc1.[Br-].[Br-] [Compound 7-B]
Bacillus cereus IFO 3001 [1]
  MIC: 0.45 µM
[2]
  MIC: 0.45 µM
[3]
  MIC: 0.45 µM
[4]
  MIC: 0.9 µM
[5]
  MIC: 0.9 µM
[6]
  MIC: 3.6 µM
[7]
  MIC: 1.8 µM
[8]
  MIC: 0.2 µM
[9]
  MIC: 6.25 µM
Proteus rettgeri NIH 96 [10]
  MIC: 3.6 µM
[11]
  MIC: 3.6 µM
[12]
  MIC: 3.6 µM
[13]
  MIC: 3.6 µM
[14]
  MIC: 6.25 µM
[15]
  MIC: 0.45 µM
[16]
  MIC: 0.45 µM
Bacillus cereus IFO 3001 [17]
  MBC: 0.9 µM
[18]
  MBC: 0.9 µM
[19]
  MBC: 0.9 µM
[20]
  MBC: 1.8 µM
[21]
  MBC: 3.6 µM
Proteus rettgeri NIH 96 [22]
  MBC: 3.6 µM
[23]
  MBC: 3.6 µM
[24]
  MBC: 0.9 µM
[25]
  MBC: 1.8 µM
[26]
  MIC: 3.6 µM
[27]
  MIC: 3.6 µM
[28]
  MIC: 3.6 µM
[29]
  MIC: 3.6 µM
[30]
  MIC: 3.6 µM
[31]
  MIC: 3.6 µM
[32]
  MIC: 3.6 µM
[33]
  MIC: 3.6 µM
Rhizopus nigricans SN 32
  MIC: 6.25 µM
[34]
  MIC: 6.25 µM

## CCCCCCCCCC[n+]1cccc(COCCCCOCc2ccc[n+](CCCCCCCCCC)c2)c1.[Br-].[Br-] [Compound 7-C]
Bacillus cereus IFO 3001 [1]
  MIC: 0.2 µM
[2]
  MIC: 0.1 µM
[3]
  MIC: 0.2 µM
[4]
  MIC: 0.45 µM
[5]
  MIC: 0.45 µM
[6]
  MIC: 1.8 µM
[7]
  MIC: 0.45 µM
[8]
  MIC: 0.1 µM
[9]
  MIC: 1.8 µM
Proteus rettgeri NIH 96 [10]
  MIC: 0.9 µM
[11]
  MIC: 0.45 µM
[12]
  MIC: 1.8 µM
[13]
  MIC: 1.8 µM
[14]
  MIC: 0.9 µM
[15]
  MIC: 0.2 µM
[16]
  MIC: 0.45 µM
Bacillus cereus IFO 3001 [17]
  MBC: 0.2 µM
[18]
  MBC: 0.2 µM
[19]
  MBC: 0.45 µM
[20]
  MBC: 0.45 µM
[21]
  MBC: 0.9 µM
Proteus rettgeri NIH 96 [22]
  MBC: 0.9 µM
[23]
  MBC: 0.9 µM
[24]
  MBC: 0.2 µM
[25]
  MBC: 0.45 µM
[26]
  MIC: 1.8 µM
[27]
  MIC: 1.8 µM
[28]
  MIC: 0.9 µM
[29]
  MIC: 1.8 µM
[30]
  MIC: 0.9 µM
[31]
  MIC: 0.9 µM
[32]
  MIC: 1.8 µM
[33]
  MIC: 1.8 µM
Rhizopus nigricans SN 32
  MIC: 1.8 µM
[34]
  MIC: 0.9 µM

## c1ccc2[nH]c(-c3cscn3)nc2c1 [TBZ, 2-(4′-thiozolyl)benzimidazole, reference compound]
[26]
  MIC: 25.6 µM (≈ 5.15 µg/mL)
[27]
  MIC: 102.4 µM (≈ 20.6 µg/mL)
[28]
  MIC: 25.6 µM (≈ 5.15 µg/mL)
[29]
  MIC: 0.8 µM (≈ 0.161 µg/mL)
[30]
  MIC: 3.2 µM (≈ 0.644 µg/mL)
[31]
  MIC: 3.2 µM (≈ 0.644 µg/mL)
[32]
  MIC: 3.2 µM (≈ 0.644 µg/mL)
[33]
  MIC: 1.6 µM (≈ 0.322 µg/mL)
Rhizopus nigricans SN 32
  MIC: 102.4< μM
[34]
  MIC: 51.2 µM (≈ 10.3 µg/mL)

## benzalkonium chloride [reference compound]
Bacillus cereus IFO 3001 [1]
  MIC: 6.4 µM
[2]
  MIC: 6.4 µM
[3]
  MIC: 6.4 µM
[4]
  MIC: 12.8 µM
[5]
  MIC: 25.6 µM
[6]
  MIC: 102.4 µM
[7]
  MIC: 12.8 µM
[8]
  MIC: 6.4 µM
[9]
  MIC: 204.8 µM
Proteus rettgeri NIH 96 [10]
  MIC: 51.2 µM
[11]
  MIC: 16.4 µM
[12]
  MIC: 51.2 µM
[13]
  MIC: 51.2 µM
[14]
  MIC: 102.4 µM
[15]
  MIC: 6.4 µM
[16]
  MIC: 12.8 µM

## benzalkonium iodide [reference compound]
Bacillus cereus IFO 3001 [17]
  MBC: 25.6 µM
[18]
  MBC: 0.8 µM
[19]
  MBC: 1.6 µM
[20]
  MBC: 204.8 µM
[21]
  MBC: 102.4 µM
Proteus rettgeri NIH 96 [22]
  MBC: 51.2 µM
[23]
  MBC: 204.8 µM
[24]
  MBC: 6.4 µM
[25]
  MBC: 51.2 µM
